Here are results for 10 compounds from ChEMBL document CHEMBL1143288, “(-)-Cercosporamide derivatives as novel antihyperglycemic agents” (Bioorg Med Chem Lett, 2009).

Series [1] deals with Mus musculus. In words: Antihyperglycemic activity in hyperglycemic KK/Ta mouse assessed as effect on food intake administered with diet in ratio of 0.03% for 1 week measured on day 7 relative to control. Format: ADME, organism-based. To be noted: in vivo, po, 168 h.
The test system of series [2] is Mus musculus. In words: Antihyperglycemic activity in hyperglycemic KK/Ta mouse assessed as effect on body weight administered with diet in ratio of 0.03% for 1 week measured on day 7 relative to control. It is filed as ADME, organism-based. To be noted: in vivo, po, 168 h.
The test system of series [3] is Mus musculus. In words: Antihyperglycemic activity in hyperglycemic KK/Ta mouse assessed as change in plasma glucose level administered with diet in ratio of 0.03% administered for 1 week relative to control. Format: functional.
The subject of series [4] is Mus musculus. Briefly: Antihyperglycemic activity in hyperglycemic KK/Ta mouse assessed as effect on body weight administered with diet in ratio of 0.1% for 1 week measured on day 7 relative to control. As to conditions: in vivo, po, 168 h. Format: ADME, organism-based.
In series [5] the test system is Mus musculus. In words: Antihyperglycemic activity in hyperglycemic KK/Ta mouse assessed as effect on food intake administered with diet in ratio of 0.1% for 1 week measured on day 7 relative to control. Format: ADME, organism-based. As to conditions: in vivo, po, 168 h.
Series [6] deals with Mus musculus. Briefly: Antihyperglycemic activity in hyperglycemic KK/Ta mouse assessed as change in plasma glucose level administered with diet in ratio of 0.1% for 1 week relative to control. Format: functional.
Series [7] addresses T1, Protein kinase C epsilon type (Homo sapiens) (UniProt Q02156).
T1 sequence (whole entry): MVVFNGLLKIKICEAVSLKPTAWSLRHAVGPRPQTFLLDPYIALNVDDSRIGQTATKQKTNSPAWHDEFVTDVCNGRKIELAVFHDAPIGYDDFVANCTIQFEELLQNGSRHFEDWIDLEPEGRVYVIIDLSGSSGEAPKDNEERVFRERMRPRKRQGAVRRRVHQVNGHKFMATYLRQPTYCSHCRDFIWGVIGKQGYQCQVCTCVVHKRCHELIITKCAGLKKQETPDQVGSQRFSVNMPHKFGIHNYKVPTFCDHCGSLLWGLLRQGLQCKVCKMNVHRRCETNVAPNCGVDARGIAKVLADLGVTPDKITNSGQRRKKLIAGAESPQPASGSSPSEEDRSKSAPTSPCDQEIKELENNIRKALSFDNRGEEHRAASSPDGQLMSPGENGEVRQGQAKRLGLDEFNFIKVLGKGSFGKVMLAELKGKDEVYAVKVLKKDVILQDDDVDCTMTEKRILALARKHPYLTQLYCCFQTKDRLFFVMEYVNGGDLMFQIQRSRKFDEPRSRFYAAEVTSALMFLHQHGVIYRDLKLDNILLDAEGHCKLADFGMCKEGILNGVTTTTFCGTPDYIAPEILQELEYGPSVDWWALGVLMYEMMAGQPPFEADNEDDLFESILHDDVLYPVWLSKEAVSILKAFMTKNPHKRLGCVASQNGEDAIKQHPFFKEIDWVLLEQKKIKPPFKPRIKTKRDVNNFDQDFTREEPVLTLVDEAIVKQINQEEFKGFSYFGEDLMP
Briefly: Inhibition of PKCepsilon at 1 uM.

The target in series [8] is T2, Protein kinase C beta type (Homo sapiens, UniProt P05771). In words: Inhibition of PKCbeta1 at 1 uM.
Target sequence in this assay (P05771 2-671 limits assumed): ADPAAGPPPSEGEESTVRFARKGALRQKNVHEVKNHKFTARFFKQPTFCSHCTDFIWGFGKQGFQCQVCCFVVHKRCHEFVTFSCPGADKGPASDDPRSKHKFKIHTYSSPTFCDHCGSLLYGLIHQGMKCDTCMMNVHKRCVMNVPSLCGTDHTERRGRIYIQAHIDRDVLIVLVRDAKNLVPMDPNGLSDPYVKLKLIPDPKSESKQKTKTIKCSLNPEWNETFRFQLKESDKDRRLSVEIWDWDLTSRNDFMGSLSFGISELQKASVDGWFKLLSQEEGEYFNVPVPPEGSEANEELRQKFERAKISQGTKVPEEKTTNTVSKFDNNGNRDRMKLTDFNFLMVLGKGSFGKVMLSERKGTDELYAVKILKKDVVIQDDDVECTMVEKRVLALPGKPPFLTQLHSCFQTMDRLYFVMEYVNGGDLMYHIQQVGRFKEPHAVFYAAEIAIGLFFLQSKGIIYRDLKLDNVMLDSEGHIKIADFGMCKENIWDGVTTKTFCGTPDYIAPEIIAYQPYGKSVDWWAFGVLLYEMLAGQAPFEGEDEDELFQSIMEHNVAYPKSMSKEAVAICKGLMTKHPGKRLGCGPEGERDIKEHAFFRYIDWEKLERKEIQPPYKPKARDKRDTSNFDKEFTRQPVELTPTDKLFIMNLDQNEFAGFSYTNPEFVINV
Series [9] addresses T3, Protein kinase C alpha type (Homo sapiens, UniProt P17252). Briefly: Inhibition of PKCalpha at 1 uM.
Series [10] addresses Protein kinase C delta type (Homo sapiens) (UniProt Q05655). In words: Inhibition of PKCdelta at 1 uM.
The target of series [11] is Protein kinase C eta type (Homo sapiens) (UniProt P24723). Briefly: Inhibition of PKCeta at 1 uM.
Sequence of Protein kinase C eta type (Homo sapiens) (P24723 whole entry): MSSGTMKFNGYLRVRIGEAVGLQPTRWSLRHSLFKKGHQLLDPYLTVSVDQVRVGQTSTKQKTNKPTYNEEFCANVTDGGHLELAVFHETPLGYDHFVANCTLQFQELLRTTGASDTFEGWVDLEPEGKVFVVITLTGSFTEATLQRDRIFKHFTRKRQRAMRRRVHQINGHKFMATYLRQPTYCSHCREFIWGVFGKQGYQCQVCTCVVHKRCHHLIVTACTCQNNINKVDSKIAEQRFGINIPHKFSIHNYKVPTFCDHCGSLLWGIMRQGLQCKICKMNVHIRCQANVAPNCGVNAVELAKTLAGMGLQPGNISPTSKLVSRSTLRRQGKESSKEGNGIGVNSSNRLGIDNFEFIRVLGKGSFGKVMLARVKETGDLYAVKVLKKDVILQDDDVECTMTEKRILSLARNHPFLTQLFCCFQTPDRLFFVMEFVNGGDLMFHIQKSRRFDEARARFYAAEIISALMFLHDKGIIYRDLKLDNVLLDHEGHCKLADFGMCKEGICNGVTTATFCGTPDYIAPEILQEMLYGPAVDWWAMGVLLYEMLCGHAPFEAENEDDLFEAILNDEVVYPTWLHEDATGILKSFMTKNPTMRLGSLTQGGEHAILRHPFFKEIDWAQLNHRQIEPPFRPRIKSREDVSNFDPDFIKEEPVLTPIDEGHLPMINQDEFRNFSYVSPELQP
Series [12] addresses T4, Protein kinase C zeta type (Homo sapiens) (UniProt Q05513).
T4 sequence (whole entry): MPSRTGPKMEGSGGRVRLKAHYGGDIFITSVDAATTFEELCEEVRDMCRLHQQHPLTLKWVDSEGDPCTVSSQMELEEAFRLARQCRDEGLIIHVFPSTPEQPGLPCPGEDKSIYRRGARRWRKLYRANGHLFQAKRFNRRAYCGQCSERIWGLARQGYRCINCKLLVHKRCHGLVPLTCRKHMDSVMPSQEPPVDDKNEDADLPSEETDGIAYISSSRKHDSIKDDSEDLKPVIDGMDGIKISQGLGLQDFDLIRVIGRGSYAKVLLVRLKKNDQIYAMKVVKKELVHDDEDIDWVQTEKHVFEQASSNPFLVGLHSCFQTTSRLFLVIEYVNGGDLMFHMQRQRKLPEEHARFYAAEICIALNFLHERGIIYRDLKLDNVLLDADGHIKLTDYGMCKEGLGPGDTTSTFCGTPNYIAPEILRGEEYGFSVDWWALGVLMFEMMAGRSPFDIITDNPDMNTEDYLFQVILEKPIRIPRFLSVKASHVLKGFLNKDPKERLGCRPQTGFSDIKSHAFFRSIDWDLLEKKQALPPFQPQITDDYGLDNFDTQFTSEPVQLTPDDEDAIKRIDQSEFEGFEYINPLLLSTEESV
In words: Inhibition of PKCzeta at 1 uM.

Series [13] addresses T2, Protein kinase C beta type. In words: Inhibition of PKCbeta2 at 1 uM.
Target sequence in this assay (P05771 2-671 limits assumed): as the sequence (P05771 2-671 limits assumed) above
Series [14] has as its system Mus musculus. Briefly: Antihyperglycemic activity in hyperglycemic KK/Ta mouse assessed as food intake administered with diet in ratio of 0.03% for 1 week measured on day 7. It is filed as ADME, organism-based. To be noted: in vivo, po, 168 h.
Series [15] has as its system Mus musculus. In words: Antihyperglycemic activity in hyperglycemic KK/Ta mouse assessed as body weight administered with diet in ratio of 0.1% for 1 week measured on day 7. As to conditions: in vivo, po, 168 h. It is filed as ADME, organism-based.
In series [16] the test system is Mus musculus. Briefly: Antihyperglycemic activity in hyperglycemic KK/Ta mouse assessed as plasma glucose level administered with diet in ratio of 0.1% for 1 week. It is filed as functional.
Series [17] relates to Mus musculus. In words: Antihyperglycemic activity in hyperglycemic KK/Ta mouse assessed as body weight administered with diet in ratio of 0.03% for 1 week measured on day 7. Format: ADME, organism-based. As to conditions: in vivo, po, 168 h.
Series [18] has as its target Protein kinase C gamma type (Homo sapiens, UniProt P05129). Briefly: Inhibition of human PKCgamma by scintillation proximity assay. A general note: In a scintillation proximity assay essentially only radioactivity close to the scintillant gives light.
In series [19] the test system is Mus musculus. Briefly: Antihyperglycemic activity in hyperglycemic KK/Ta mouse assessed as body weight administered with diet in ratio of 0.003% for 1 week measured on day 7. It is filed as ADME, organism-based. To be noted: in vivo, po, 168 h.
Series [20] concerns Mus musculus. Briefly: Antihyperglycemic activity in hyperglycemic KK/Ta mouse assessed as body weight administered with diet in ratio of 0.01% for 1 week measured on day 7. It is filed as ADME, organism-based. As to conditions: in vivo, po, 168 h.
For series [21], the system named is Mus musculus. In words: Antihyperglycemic activity in hyperglycemic KK/Ta mouse assessed as plasma glucose level administered with diet in ratio of 0.03% for 1 week. It is filed as functional.
In series [22] the test system is Mus musculus. In words: Antihyperglycemic activity in hyperglycemic KK/Ta mouse assessed as plasma glucose level administered with diet in ratio of 0.01% for 1 week. It is filed as functional.
Series [23] deals with T5, Protein kinase C-like 1 (Candida albicans, UniProt P43057).
T5 sequence (P43057 whole entry): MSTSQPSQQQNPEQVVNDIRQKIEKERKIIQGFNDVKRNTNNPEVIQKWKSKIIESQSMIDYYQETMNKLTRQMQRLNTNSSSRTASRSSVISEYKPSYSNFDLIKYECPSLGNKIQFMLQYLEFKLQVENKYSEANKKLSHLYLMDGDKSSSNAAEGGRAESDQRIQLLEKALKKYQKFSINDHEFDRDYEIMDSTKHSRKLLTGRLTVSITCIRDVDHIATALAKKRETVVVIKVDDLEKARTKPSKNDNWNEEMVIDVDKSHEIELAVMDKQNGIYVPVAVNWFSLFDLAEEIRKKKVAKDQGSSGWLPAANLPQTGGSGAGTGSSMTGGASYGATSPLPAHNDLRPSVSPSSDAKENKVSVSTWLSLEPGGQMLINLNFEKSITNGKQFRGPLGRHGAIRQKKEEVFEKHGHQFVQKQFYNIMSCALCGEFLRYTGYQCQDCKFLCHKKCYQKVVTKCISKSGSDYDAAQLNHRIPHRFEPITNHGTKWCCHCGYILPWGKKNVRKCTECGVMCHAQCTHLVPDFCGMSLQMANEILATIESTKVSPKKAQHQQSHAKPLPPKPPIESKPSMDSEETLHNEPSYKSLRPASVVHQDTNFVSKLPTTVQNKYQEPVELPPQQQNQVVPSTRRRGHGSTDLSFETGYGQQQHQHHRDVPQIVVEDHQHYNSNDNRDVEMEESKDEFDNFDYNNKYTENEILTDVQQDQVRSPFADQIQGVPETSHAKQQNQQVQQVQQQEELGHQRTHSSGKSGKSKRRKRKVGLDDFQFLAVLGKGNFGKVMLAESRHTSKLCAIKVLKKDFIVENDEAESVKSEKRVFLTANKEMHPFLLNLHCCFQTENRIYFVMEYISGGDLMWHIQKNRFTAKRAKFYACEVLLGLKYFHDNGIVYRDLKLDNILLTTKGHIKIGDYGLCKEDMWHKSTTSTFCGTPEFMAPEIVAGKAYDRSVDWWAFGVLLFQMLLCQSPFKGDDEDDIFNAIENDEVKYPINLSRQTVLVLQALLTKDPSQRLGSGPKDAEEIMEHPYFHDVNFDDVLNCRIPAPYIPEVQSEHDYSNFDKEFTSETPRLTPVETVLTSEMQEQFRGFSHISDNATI
Briefly: Inhibition of Candida albicans Pkc1 expressed in insect Sf9 cells by scintillation proximity assay.

Series [24] concerns the target T2, Protein kinase C beta type. Briefly: Inhibition of human PKCbeta by scintillation proximity assay.
Target sequence in this assay (P05771 whole entry): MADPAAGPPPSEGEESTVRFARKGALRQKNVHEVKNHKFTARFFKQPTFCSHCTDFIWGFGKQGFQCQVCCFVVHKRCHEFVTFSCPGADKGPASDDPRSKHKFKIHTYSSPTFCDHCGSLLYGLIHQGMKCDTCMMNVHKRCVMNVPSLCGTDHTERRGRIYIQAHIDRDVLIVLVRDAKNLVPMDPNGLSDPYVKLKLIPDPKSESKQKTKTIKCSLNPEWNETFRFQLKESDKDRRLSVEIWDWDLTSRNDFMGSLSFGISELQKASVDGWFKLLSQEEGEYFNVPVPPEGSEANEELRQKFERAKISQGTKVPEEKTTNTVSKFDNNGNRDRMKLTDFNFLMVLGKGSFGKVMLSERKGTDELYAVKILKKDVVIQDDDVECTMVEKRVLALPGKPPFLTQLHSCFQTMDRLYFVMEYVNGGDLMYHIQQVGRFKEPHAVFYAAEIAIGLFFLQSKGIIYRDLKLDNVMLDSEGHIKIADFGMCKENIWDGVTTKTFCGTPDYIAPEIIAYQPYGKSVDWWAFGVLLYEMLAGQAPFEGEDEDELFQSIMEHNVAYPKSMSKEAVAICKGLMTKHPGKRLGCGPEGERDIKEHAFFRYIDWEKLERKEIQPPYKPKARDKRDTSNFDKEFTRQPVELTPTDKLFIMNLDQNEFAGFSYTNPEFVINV
Series [25] relates to Mus musculus. In words: Antihyperglycemic activity in hyperglycemic KK/Ta mouse assessed as food intake administered with diet in ratio of 0.003% for 1 week measured on day 7. Format: ADME, organism-based. To be noted: in vivo, po, 168 h.
In series [26] the test system is Mus musculus. In words: Antihyperglycemic activity in hyperglycemic KK/Ta mouse assessed as plasma glucose level administered with diet in ratio of 0.003% for 1 week. Format: functional.
Series [27] concerns the target T3, Protein kinase C alpha type. In words: Inhibition of human PKCalpha by scintillation proximity assay.
The test system of series [28] is Mus musculus. Briefly: Antihyperglycemic activity in hyperglycemic KK/Ta mouse assessed as food intake administered with diet in ratio of 0.01% for 1 week measured on day 7. It is filed as ADME, organism-based. As to conditions: in vivo, po, 168 h.
The test system of series [29] is Mus musculus. Briefly: Antihyperglycemic activity in hyperglycemic KK/Ta mouse assessed as food intake administered with diet in ratio of 0.1% for 1 week measured on day 7. Format: ADME, organism-based. To be noted: in vivo, po, 168 h.

Calls of active or inactive are those of the source. The rule behind the calls is not given here.

Sequence of Protein kinase C delta type (Homo sapiens) (Q05655 whole entry, looked up): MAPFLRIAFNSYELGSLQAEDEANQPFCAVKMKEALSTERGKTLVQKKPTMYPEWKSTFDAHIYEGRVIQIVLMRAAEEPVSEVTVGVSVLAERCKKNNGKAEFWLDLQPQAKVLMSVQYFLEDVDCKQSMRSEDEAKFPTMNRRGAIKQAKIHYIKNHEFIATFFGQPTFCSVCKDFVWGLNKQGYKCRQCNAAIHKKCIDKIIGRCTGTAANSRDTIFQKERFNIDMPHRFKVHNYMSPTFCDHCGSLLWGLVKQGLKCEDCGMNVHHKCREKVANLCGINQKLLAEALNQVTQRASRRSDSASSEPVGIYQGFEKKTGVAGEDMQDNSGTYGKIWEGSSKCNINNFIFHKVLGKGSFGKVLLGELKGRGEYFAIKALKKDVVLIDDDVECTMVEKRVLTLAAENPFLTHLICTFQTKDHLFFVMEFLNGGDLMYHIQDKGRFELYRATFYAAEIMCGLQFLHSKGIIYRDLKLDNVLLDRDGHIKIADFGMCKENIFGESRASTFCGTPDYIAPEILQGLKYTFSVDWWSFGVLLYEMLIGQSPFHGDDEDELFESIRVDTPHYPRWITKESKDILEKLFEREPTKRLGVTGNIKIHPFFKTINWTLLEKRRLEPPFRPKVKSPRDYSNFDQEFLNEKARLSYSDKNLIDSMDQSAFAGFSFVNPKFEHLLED

For the compound `CC(=O)C1=C(O)C=C2Oc3c4c(cc(O)c3[C@]2(C)C1=O)OC1(CCCCC1)NC4=O`, the Activity in series [1] amounted to 104%; in series [2] it was 104%; in series [3], 38%.

For `COc1cc(O)c2c(c1C(N)=O)OC1=CC(O)=C(C(C)=O)C(=O)[C@]12C`, the Activity was found to be 83% in series [4], 37% in series [5] and 70% in series [6].

With `CC(=O)C1=C(O)C=C2Oc3c4c(cc(O)c3[C@]2(C)C1=O)OC(C)(C)NC4=O`, the Activity came to 102% in series [4]; 92% in series [1]; 78% in series [5]; 102% in [2]; 56% in series [6]; 35% in series [3]. Moreover, the result in series [7], in series [8], in [9], in series [10], in series [11] and in series [12] was inactive. Further, the outcome in series [13] was inactive.

`CC1=NOC2C=C3Oc4c(C(N)=O)c(O)cc(O)c4[C@]3(C)C(=O)C12` (stereo partly specified): the Activity in series [4] came out at 102%; in [5], 126%; in [6] it was 1%.

In the case of `CC(=O)C1=C(O)C=C2Oc3c(C(N)=O)c(O)cc(O)c3[C@]2(C)C1=O`, the Activity in [14] was found to be 3.65 g/day; in series [4], 83%; in series [15], 39.1 g; in [16] it was 176 mg/dL; in series [17] it was 45.9 g; in [19], 48.4 g. For the same compound, the Activity in series [20] stood at 47 g; in [21], 272 mg/dL; in [22] it was 408 mg/dL; in [25] it was 5.78 g/day; in series [26] it was 571 mg/dL; in series [5], 34%. The Activity in [28] is 4.81 g/day; in series [29], 1.89 g/day; in series [6], 71%. Further, the IC50 in series [18] is 5800 nM; in series [23], 44 nM; in series [24], 350 nM; in series [27], 1020 nM.

As to `CC(=O)C1=C(O)CC2Oc3c(C(N)=O)c(O)cc(O)c3[C@]2(C)C1=O` (stereo partly specified), the Activity in [4] is 101%; in series [5] it was 111%; in series [6], 29%.

As for `COc1cc(OC)c2c(c1C(=O)N(C)C)OC1=CC(O)=C(C(C)=O)C(=O)[C@]12C`, the Activity in series [4] amounted to 96%; in series [5], 95%; in [6] it was 14%.

With `COc1cc(OC)c2c(c1C(N)=O)OC1=CC(O)=C(C(C)=O)C(=O)[C@]12C`, the Activity in series [4] is given as 100%; in series [5], 92%; in series [6], 26%.

As for `CC(=O)C1=C(O)C=C2Oc3c4c(cc(O)c3[C@]2(C)C1=O)OC(C)(c1ccccc1)NC4=O` (stereo partly specified), the results for the Activity in [1], in series [2] and in [3] were 94%, 100% and 54%, respectively.

On to `CC(=O)C1=C(O)C=C2Oc3c4c(cc(O)c3[C@]2(C)C1=O)OC1(CCCC1)NC4=O`, for which the Activity in [1] turned out to be 106%; in series [2], 102%; in series [3], 7%.

As usually defined, the IC50 is the midpoint of a concentration-inhibition curve.
